Laboratory results from patent publication US20140343104A1, “OSTEOGENESIS PROMOTER AND USE THEREOF” (National University Corporation Nagoya University, priority 2011, published 2014).

Tests used:
[1] = test system: P1 promoter region of the human Runx2 gene; test: RUNX2 P1 promoter luciferase reporter assay in BMP-2-induced C3H10T1/2 stable expression strain (primary, secondary, tertiary screening); assay type: cell-based; settings: five times of screening (N=6/time); average of 5 times or even at once
Text: Existing drugs which increase the promoter activity of the transcription factor Runx2 were exhaustively searched by luciferase assay. Firstly, the P1 promoter region of the human Runx2 gene was inserted into the multiple cloning site of the pGL4 luciferase reporter vector (Promega K.K.) (pGL4.10 vector). The pGL4.10 vector was transfected into the undifferentiated mouse mesenchymal cell line C3H10T1/2, and selectively cultured on a G418-containing medium, thereby establishing the stable expression strain. The cells were seeded on a 96-well (day 1), and human BMP-2 was added to each well on day 2, thereby inducing differentiation into osteoblasts. On the following day, the test compounds (10 μM) composing Prestwick Chemical Library (registered trademark) (Prestwick Chemical Ltd.) were added, and the cells were collected 24 hours after, and subjected to luciferase assay.
In addition to the compounds which made the reporter activity of luciferase (average of 5 times) 1.5 times that of the control, those made the activity 1.5 times than that of the control even at once were selected.

luciferase protein = test: double luciferase assay, pGL4.10 basic vector and phRL vector cotransfected into C3H10T1/2 cells; assay type: cell-based; settings: pGL4.10 [luc2/SV40] basic vector and phRL [hRluc/TK] vector
Description: In order to exclude the possibility of the potential agent to increase the enzymatic activity of luciferase protein, the pGL4. 10 basic vector (pGL4.10 [luc2/SV40] basic vector) and phRLvector (phRL [hRluc/TK] vector) were cotransfected into the C3H10T1/2 cells, the potential agents were individually added, and double luciferase assay was performed.

[2] = test system: P1 promoter region of the human Runx2 gene; test: RUNX2 P1 promoter luciferase reporter assay in BMP-2-induced C3H10T1/2 stable expression strain (primary, secondary, tertiary screening); assay type: cell-based; settings: three times of screening (N=6/time) at 8 levels of concentration
Runx2 gene [3] = test: Runx2 gene expression by quantitative PCR in HOS cells; assay type: cell-based, human; settings: PPI cultured for 24 hours, FIG. 1
Description: (§1) Human osteogenic sarcoma cells (HOSs) and the C3H10T1/2 cells were used in the experiment. Firstly, the cells (HOS or C3H10T1/2) were seeded on a 12-well plate (day 1). When the C3H10T1/2 cells were used, the human BMP-2 was added to each well on the following day. On day 3, PPI (rabeprazole or lansoprazole) was added and cultured for 24 hours, and the cells were collected. Total RNAs were prepared from the collected cells, and the expression of the Runx2 gene was analyzed by the quantitative PCR method.

Runx2 gene [4] = test: Runx2 gene expression by quantitative PCR in BMP-2-induced C3H10T1/2 cells; assay type: cell-based, mouse; settings: C3H10T1/2 cells differentiated by BMP-2; PPI cultured for 24 hours; FIG. 2
Description: as §1

Runx2 protein [5] = test: Runx2 protein expression by Western blot in HOS cells; assay type: cell-based, human; settings: 48 hours and 78 hours after the addition of PPI, relative to Gapdh, FIGS. 3 and 4
Description: as §1
(§2) Using the HOS cells and the C3H10T1/2 cells cultured in the same manner as in 4-1, and the expression level of the Runx2 protein and the ALP activity which is the index of bone differentiation were evaluated over time. The expression level of the Runx2 protein was evaluated by the Western blot test, and the ALP activity was measured by the ELISA method.

Runx2 protein [6] = test: Runx2 protein expression by Western blot in BMP-2-induced C3H10T1/2 cells; assay type: cell-based, mouse; settings: C3H10T1/2 cells differentiated by BMP-2; 48 hours and 78 hours after the addition of PPI; relative to Gapdh; FIGS. 5 and 6
Description: as §1, §2

[7] = test system: alkaline phosphatase (ALP) activity; test: ALP activity by ELISA in HOS cells; assay type: cell-based, human; settings: day 6 after the addition of PPI, FIG. 7
Description: as §1, §2

[8] = test system: alkaline phosphatase (ALP) activity; test: ALP activity by ELISA in BMP-2-induced C3H10T1/2 cells; assay type: cell-based, mouse; settings: day 5 after the addition of PPI, FIG. 8
Description: as §1, §2

Runx2 gene [9] = test: Runx2 gene expression in rat cultured bone marrow mesenchymal cells; assay type: cell-based; settings: bone-inducing media, P1, P2, P3, 24 hours after the addition of PPI, FIG. 9
Description: Mesenchymal cells were prepared from a rat bone marrow solution, and cultured (cultured bone marrow mesenchymal cells). Subsequently, the cells were subcultivated (P1, P2, and P3) in bone-inducing media (dexamethasone, β-glycerophosphoric acid, and ascorbic acid were added the culture media). PPI was added when each of the P1, P2, and P3 reached confluent. The cells were collected 24 hours after the addition of PPI, and the expression of the Runx2 gene was analyzed in the same manner as in 4-1.

Runx2 gene [10] = test: Runx2 gene expression in human bone marrow mesenchymal stem cells; assay type: cell-based; settings: PPI-containing bone-inducing media, P0, P1, P2, FIG. 10
Description: On the other hand, the human bone marrow mesenchymal stem cells (POIETICS (registered trademark), Lonza Ltd.) were subjected to primary culture (P0) and subcultivation (P1, P2) in the PPI-containing bone-inducing media (culture media containing PPI, dexamethasone, β-glycerophosphoric acid, and ascorbic acid). The bone-inducing medium was replaced every three days. The cells were collected when each of P0, P1, and P2 reached confluent, and the expression of the Runx2 gene was analyzed in the same manner as in 4-1.

rat femur defect model = test: rat femur defect model, soft X-ray; assay type: in vivo; settings: SD rat femur 3 mm defect, ad libitum oral administration
Text: The left hind femur of an SD rat (male, 9 weeks old) was exposed by anterolateral approach, and an external fixator was installed. The diaphysis was cut by an oscillating saw, (defect amount 3 mm), and the bone was elongated in a single stage, and used as a bone defect model (defect group N=6, control group N=6). Lansoprazole was given to the bone defect model by ad libitum oral administration (about 10 to 20 times the usual human dose), and the bone defect part was photographed periodically by soft X-ray. In addition, the body weight and drinking water amount were periodically measured.

Compound	secondary screening: reporter activity of luciferase 1.5 times that of the control [1]	tertiary screening: concentration dependency of the promotion of RUNX2 promoter activity [2]	specificity of RUNX2 promoter promotion versus increase of luciferase activity (luciferase protein)	other results
Cc1oncc1C(=O)Nc1ccc(C(F)(F)F)cc1 [leflunomide, 5-methyl-N-[4-(trifluoromethyl)phenyl]-1,2-oxazole-4-carboxamide]	selected	concentration dependency	specifically promote the RUNX2 promoter activity	–
COC(=O)Nc1nc2ccc(SC(C)C)cc2[nH]1 [methiazole, methyl n-(6-propan-2-ylsulfanyl-1H-benzimidazol-2-yl) carbamate]	selected	–	–	–
c1ccc2[nH]c(-c3cscn3)nc2c1 [tiabendazole, 4-(1H-benzimidazol-2-yl)-1,3-thiazole]	selected	–	–	–
CCCSc1ccc2nc(NC(=O)OC)[nH]c2c1 [albendazole, methyl n-(6-propylsulfanyl-1H-benzimidazol-2-yl) carbamate]	selected	–	–	–
Cl.Nc1ccc(N=Nc2ccccc2)c(N)n1 [phenazopyridine hydrochloride, 3-phenyldiazenylpyridine-2,6-diamine hydrochloride]	selected	–	–	–
Cc1c(OCC(F)(F)F)ccnc1C[S+]([O-])c1nc2ccccc2[nH]1 (stereo not shown) [lansoprazole, 2-[[3-methyl-4-(2,2,2-trifluoroethoxy)pyridin-2-yl]methylsulfinyl]-1H-benzimidazole]	selected	concentration dependency	specifically promote the RUNX2 promoter activity	induction of expression of the Runx2 gene (Runx2 gene [3]): concentration-dependent activity of inducing the expression of the Runx2 gene; induction of expression of the Runx2 gene (Runx2 gene [4]): concentration-dependent activity of inducing the expression of the Runx2 gene; Runx2 protein expression level (Runx2 protein [5]): expression inducing effect; Runx2 protein expression level (Runx2 protein [6]): expression inducing effect; ALP activity [7]: increase effect; ALP activity [8]: increase effect; induction of the expression of the Runx2 gene (Runx2 gene [9]): expression inducing effect; induction of the expression of the Runx2 gene (Runx2 gene [10]): expression inducing effect; osteogenesis promoting effect (rat femur defect model): marked osteogenesis promoting effect; animals showing good osteogenesis (bone adhesion on soft X-ray) (rat femur defect model; about 10 to 20 times the usual human dose, 12 weeks, N=6): 3/6
COCCCOc1ccnc(C[S+]([O-])c2nc3ccccc3[nH]2)c1C (stereo not shown) [rabeprazole, 2-[[4-(3-methoxypropoxy)-3-methylpyridin-2-yl]methylsulfinyl]-1H-benzimidazole]	selected	concentration dependency	specifically promote the RUNX2 promoter activity	induction of expression of the Runx2 gene (Runx2 gene [3]): concentration-dependent activity of inducing the expression of the Runx2 gene; induction of expression of the Runx2 gene (Runx2 gene [4]): concentration-dependent activity of inducing the expression of the Runx2 gene; Runx2 protein expression level (Runx2 protein [5]): expression inducing effect; Runx2 protein expression level (Runx2 protein [6]): expression inducing effect; ALP activity [7]: increase effect; ALP activity [8]: increase effect; induction of the expression of the Runx2 gene (Runx2 gene [9]): expression inducing effect; induction of the expression of the Runx2 gene (Runx2 gene [10]): expression inducing effect

Continued, in another order:

secondary screening: reporter activity of luciferase 1.5 times that of the control [1]	tertiary screening: concentration dependency of the promotion of RUNX2 promoter activity [2]	Compound	specificity of RUNX2 promoter promotion versus increase of luciferase activity (luciferase protein)	other results
selected	concentration dependency	COc1ccc2cc(CCC(C)=O)ccc2c1 [nabumetone, 4-(6-methoxynaphthalen-2-yl)butan-2-one]	specifically promote the RUNX2 promoter activity	–
selected	–	CC(C(=O)O)c1ccc(N2Cc3ccccc3C2=O)cc1 (stereo not shown) [indoprofen, 2-[4-(3-oxo-1H-isoindol-2-yl)phenyl]propanoic acid]	–	–
selected	concentration dependency	COc1ccc(/C=C/C(=O)Nc2ccccc2C(=O)O)cc1OC [tranilast, 2-[[(E)-3-(3,4-dimethoxyphenyl)prop-2-enoyl]amino]benzoic acid]	slightly increase the luciferase activity	–
selected	–	O=C(O)CCNC(=O)c1ccc(/N=N/c2ccc(O)c(C(=O)O)c2)cc1 [balsalazide sodium, disodium (3Z)-3-[[4-(2-carboxylatoethylcarbamoyl)phenyl]hydrazinylidene]-6-oxocyclohexa-1,4-diene-1-carboxylate dehydrate]	–	–
selected	concentration dependency	CC(C(=O)O)c1ccc(C(=O)c2ccccc2)s1 (stereo not shown) [tiaprofenic acid, 2-(5-benzoylthiophen-2-yl)propanoic acid]	specifically promote the RUNX2 promoter activity	–
selected	–	O=c1cc(-c2ccc(O)c(O)c2)oc2cc(O)cc(O)c12 [luteolin, 2-(3,4-dihydroxyphenyl)-5,7-dihydroxychromen-4-one]	–	–
